Results published in patent US11572344B2, “Cyanoaryl-aniline compounds for treatment of dermal disorders” (NFlection Therapeutics, Inc., priority 2018, dated 2023).

System: pERK in human cutaneous neurofibroma explants
Assay: Human cutaneous neurofibroma explant pERK suppression (Western blot)
Format: cell-based
Experimental: Explant Protocol: Human cutaneous neurofibroma explant samples were collected in DMEM/F-12 (Thermo Fisher, Cat #11320033) supplemented with 1×B27 supplement (Thermo Fisher, Cat #17504044), 2.5 μg/ml of Amphotericin B (Thermo Fisher, Cat #15290018), and 50 units/ml of Penicillin-50 μg/ml of Streptomycin (Thermo Fisher, Cat #15070063) and incubated in the same medium for subsequent treatment. The specimen was cut into small cubes containing both the epidermis and dermis. The tissues were partially submerged in the medium in 384-well plate with the epidermis exposed to the air.
The tissues were fully submerged in the medium in 48-well plate and 5 μl of compounds dissolved in DMSO were added to 200 μl of the medium in each well. After 4 h incubation at 37° C. and 5% CO2, the tissues were harvested and half of the specimen was flash frozen in liquid nitrogen for Western Blot analysis. The other half of the specimen was fixed for 24 hours in 10% formalin and then transferred to 70% ethanol for […].
Skin samples were thawed on ice and weighed. 10 volume (10 μl for each mg of tissue) of lysis buffer (RIPA buffer+0.5 mM EDTA+1×Halt protease and phosphatase inhibitor cocktail) was then added to each sample. […]
Western Blot analysis: The lysate was thawed on ice and protein concentration was determined by the BCA protein assay kit using bovine serum albumin (BSA) as standards. […]

In the case of N#Cc1ccc(C(=O)NOCCO)c(Nc2ccc(I)cc2F)c1F [Compound 1.030, 4-cyano-3-fluoro-2-((2-fluoro-4-iodophenyl)amino)-N-(2-hydroxyethoxy) benzamide], the “suppression of pERK in human cutaneous neurofibroma (cNF) explants” value (concentration of 500 nM (FIG. 5)) is reported as “suppression of pERK” and the “suppression of pERK in human cutaneous neurofibroma (cNF) explants” value (treatment for 4 hours at 5 nM, 50 nM, and 500 nM (FIG. 4)) is reported as “suppression of pERK”.
